From ChEMBL document CHEMBL3045653, “A novel amino acid substitution Ala-122-Tyr in ALS confers high-level and broad resistance across ALS-inhibiting herbicides” (Pest Manag Sci, 2012)
Active and inactive are the calls of the source. No cut-off for these calls is given here.

How the values were obtained:
Raphanus raphanistrum [1] = experiment: Herbicidal activity against two to three leaf stage ALS-herbicide-susceptible Raphanus raphanistrum WARR7 (wild radish) assessed as reduction in dry weight of above-ground biomass measured 3 weeks after compound treatment; assay type: functional
Raphanus raphanistrum [2] = experiment: Herbicidal activity against two to three leaf stage ALS-herbicide-resistant Raphanus raphanistrum WARR30 (wild radish) expressing ALS Ala122Tyr mutant assessed as reduction in dry weight of above-ground biomass measured 3 weeks after compound treatment; assay type: functional
Acetolactate synthase [3] = molecular target: Acetolactate synthase (Raphanus raphanistrum, UniProt J7HAW4, A122Y); experiment: Inhibition of ALS Ala122Tyr mutant in ALS-herbicide-resistant Raphanus raphanistrum WARR30 (wild radish) expressing ALS Ala122Tyr mutant; details: read-out: I50
Raphanus raphanistrum [4] = experiment: Herbicidal activity against two to three leaf stage ALS-herbicide-susceptible Raphanus raphanistrum WARR7 (wild radish) assessed as reduction in survival measured 3 weeks after compound treatment; assay type: functional
Raphanus raphanistrum [5] = experiment: Herbicidal activity against two to three leaf stage ALS-herbicide-resistant Raphanus raphanistrum WARR30 (wild radish) expressing ALS Ala122Tyr mutant assessed as reduction in survival measured 3 weeks after compound treatment; assay type: functional
Raphanus raphanistrum [6] = experiment: Resistance index, ratio of I50 for ALS Ala122Tyr mutant in ALS-herbicide-resistant Raphanus raphanistrum WARR30 (wild radish) expressing ALS Ala122Tyr mutant to I50 for ALS-herbicide-susceptible Raphanus raphanistrum (wild radish)
Acetolactate synthase [7] = molecular target: T1, Acetolactate synthase (Raphanus raphanistrum, UniProt J7HAW4); experiment: Inhibition of ALS in ALS-herbicide-susceptible Raphanus raphanistrum […] (wild radish); details: pooled result: one value given for 2 cell lines, strains, targets or settings; read-out: I50
T1 sequence (J7HAW4 whole entry): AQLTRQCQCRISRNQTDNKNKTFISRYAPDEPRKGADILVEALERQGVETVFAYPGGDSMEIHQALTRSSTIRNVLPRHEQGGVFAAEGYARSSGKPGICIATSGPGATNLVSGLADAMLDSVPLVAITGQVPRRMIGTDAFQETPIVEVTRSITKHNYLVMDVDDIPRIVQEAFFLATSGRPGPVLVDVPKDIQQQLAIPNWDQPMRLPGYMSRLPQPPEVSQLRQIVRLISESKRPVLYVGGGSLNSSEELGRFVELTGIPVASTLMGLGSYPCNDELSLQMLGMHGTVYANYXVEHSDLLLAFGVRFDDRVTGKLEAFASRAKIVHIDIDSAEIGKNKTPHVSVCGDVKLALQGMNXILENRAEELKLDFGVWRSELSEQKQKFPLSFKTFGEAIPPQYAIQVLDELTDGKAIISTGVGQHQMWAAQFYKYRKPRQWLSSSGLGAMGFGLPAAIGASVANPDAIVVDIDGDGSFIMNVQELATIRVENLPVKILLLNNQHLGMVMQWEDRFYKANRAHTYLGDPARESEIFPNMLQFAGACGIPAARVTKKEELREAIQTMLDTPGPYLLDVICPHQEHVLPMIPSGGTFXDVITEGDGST

Raphanus raphanistrum [8] = experiment: Resistance index, ratio of GR50 for ALS-herbicide-resistant Raphanus raphanistrum WARR30 (wild radish) expressing ALS Ala122Tyr mutant to GR50 for ALS-herbicide-susceptible Raphanus raphanistrum (wild radish) WARR7; assay type: functional
Raphanus raphanistrum [9] = experiment: Herbicidal activity against two to three-leaf stage ALS-herbicide-resistant Raphanus raphanistrum WARR30 (wild radish) expressing ALS Ala122Tyr mutant assessed as reduction in survival at 1600 g/ha measured 3 weeks after compound treatment; assay type: functional; details: WARR30, 504 h, read-out: GI
Raphanus raphanistrum [10] = experiment: Resistance index, ratio of LD50 for ALS-herbicide-resistant Raphanus raphanistrum WARR30 (wild radish) expressing ALS Ala122Tyr mutant to LD50 for ALS-herbicide-susceptible Raphanus raphanistrum (wild radish) WARR7; assay type: functional
Raphanus raphanistrum [11] = experiment: Herbicidal activity against two to three-leaf stage ALS-herbicide-susceptible Raphanus raphanistrum WARR7 (wild radish) assessed as reduction in survival at 62 g/ha measured 3 weeks after compound treatment; assay type: functional, organism-based
Raphanus raphanistrum [12] = experiment: Herbicidal activity against two to three-leaf stage ALS-herbicide-susceptible Raphanus raphanistrum WARR7 (wild radish) assessed as reduction in survival at 0.75 g/ha measured 3 weeks after compound treatment; assay type: functional; details: WARR7, 504 h, read-out: GI
Raphanus raphanistrum [13] = experiment: Herbicidal activity against two to three-leaf stage ALS-herbicide-resistant Raphanus raphanistrum WARR30 (wild radish) expressing ALS Ala122Tyr mutant assessed as reduction in survival at 384 g/ha measured 3 weeks after compound treatment; assay type: functional; details: WARR30, 504 h, read-out: GI
Raphanus raphanistrum [14] = experiment: Herbicidal activity against two to three-leaf stage ALS-herbicide-resistant Raphanus raphanistrum WARR30 (wild radish) expressing ALS Ala122Tyr mutant assessed as reduction in survival at 640 g/ha measured 3 weeks after compound treatment; assay type: functional, organism-based
Raphanus raphanistrum [15] = experiment: Herbicidal activity against two to three-leaf stage ALS-herbicide-resistant Raphanus raphanistrum WARR30 (wild radish) expressing ALS Ala122Tyr mutant assessed as reduction in survival at 20 g/ha measured 3 weeks after compound treatment; assay type: functional; details: WARR30, 504 h, read-out: GI
Raphanus raphanistrum [16] = experiment: Herbicidal activity against two to three-leaf stage ALS-herbicide-susceptible Raphanus raphanistrum WARR7 (wild radish) assessed as reduction in survival at 0.625 g/ha measured 3 weeks after compound treatment; assay type: functional; details: WARR7, 504 h, read-out: GI
Raphanus raphanistrum [17] = experiment: Herbicidal activity against two to three-leaf stage ALS-herbicide-susceptible Raphanus raphanistrum WARR7 (wild radish) assessed as reduction in survival at 50 g/ha measured 3 weeks after compound treatment; assay type: functional, organism-based

CCc1cnc(C2=NC(C)(C(C)C)C(=O)N2)c(C(=O)O)c1 (centres undefined) [IMAZETHAPYR]
Activity (Raphanus raphanistrum [1]): Active | Activity (Raphanus raphanistrum [2]): inactive | IC50 (Acetolactate synthase [3]): > 1000 µM | Activity (Raphanus raphanistrum [4]): Active | Activity (Raphanus raphanistrum [5]): inactive | Ratio (Raphanus raphanistrum [6]): > 741 | IC50 (Acetolactate synthase [7]): 1.35 µM

COCc1cnc(C2=NC(C)(C(C)C)C(=O)N2)c(C(=O)O)c1 (centres undefined) [IMAZAMOX]
GR50 (Raphanus raphanistrum [1]): <6.3 g/ha | GR50 (Raphanus raphanistrum [2]): >1600 g/ha | Ratio (Raphanus raphanistrum [8]): >256 | IC50 (Acetolactate synthase [3]): > 100 µM | LD50 (Raphanus raphanistrum [4]): 11.7 g/ha | inhibition of growth at 1600 g/ha (Raphanus raphanistrum [9]): 20% | Ratio (Raphanus raphanistrum [10]): >137 | LD50 (Raphanus raphanistrum [5]): >1600 g/ha | Ratio (Raphanus raphanistrum [6]): > 21 | IC50 (Acetolactate synthase [7]): 4.78 µM | Activity (Raphanus raphanistrum [11]): Active

Cc1ccn2nc(S(=O)(=O)Nc3c(F)cccc3F)nc2n1
Activity (Raphanus raphanistrum [1]): Active | Activity (Raphanus raphanistrum [2]): inactive | IC50 (Acetolactate synthase [3]): > 100 µM | Activity (Raphanus raphanistrum [4]): Active | Activity (Raphanus raphanistrum [5]): inactive | Ratio (Raphanus raphanistrum [6]): > 60 | IC50 (Acetolactate synthase [7]): 1.66 µM

Cc1cc(C)nc(NC(=O)NS(=O)(=O)c2ccccc2C(=O)O)n1 [SULFOMETURON]
Activity (Raphanus raphanistrum [1]): Active | Activity (Raphanus raphanistrum [2]): inactive | IC50 (Acetolactate synthase [3]): > 100 µM | Activity (Raphanus raphanistrum [4]): Active | Activity (Raphanus raphanistrum [5]): inactive | Ratio (Raphanus raphanistrum [6]): > 4350

COc1cc(OC)n2nc(S(=O)(=O)Nc3c(Cl)ccc(C)c3Cl)nc2n1 [METOSULAM]
GR50 (Raphanus raphanistrum [1]): <0.75 g/ha | GR50 (Raphanus raphanistrum [2]): >384 g/ha | Ratio (Raphanus raphanistrum [8]): >512 | inhibition of growth at 0.75 g/ha (Raphanus raphanistrum [12]): 95% | IC50 (Acetolactate synthase [3]): 94 µM | inhibition of growth at 384 g/ha (Raphanus raphanistrum [13]): 10% | LD50 (Raphanus raphanistrum [4]): <0.75 g/ha | Ratio (Raphanus raphanistrum [10]): >512 | LD50 (Raphanus raphanistrum [5]): >384 g/ha | Ratio (Raphanus raphanistrum [6]): > 94500 | IC50 (Acetolactate synthase [7]): < 0.001 µM

COc1nc(C)nc(NC(=O)NS(=O)(=O)c2ccccc2Cl)n1 [CHLORSULFURON]
GR50 (Raphanus raphanistrum [1]): <0.625 g/ha | GR50 (Raphanus raphanistrum [2]): >640 g/ha | Activity (Raphanus raphanistrum [14]): inactive | LD50 (Raphanus raphanistrum [4]): <0.625 g/ha | inhibition of growth at 20 g/ha (Raphanus raphanistrum [15]): 15% | inhibition of growth at 0.625 g/ha (Raphanus raphanistrum [16]): 72% | LD50 (Raphanus raphanistrum [5]): >640 g/ha

CC(C)C1(C)N=C(c2ncccc2C(=O)O)NC1=O (centres undefined) [IMAZAPYR]
GR50 (Raphanus raphanistrum [1]): <63 g/ha | GR50 (Raphanus raphanistrum [2]): 486 g/ha | Ratio (Raphanus raphanistrum [8]): >7.8 | IC50 (Acetolactate synthase [3]): > 100 µM | LD50 (Raphanus raphanistrum [4]): <63 g/ha | Activity (Raphanus raphanistrum [17]): Active | Ratio (Raphanus raphanistrum [10]): >16 | LD50 (Raphanus raphanistrum [5]): 1000 g/ha | Ratio (Raphanus raphanistrum [6]): > 14.6 | IC50 (Acetolactate synthase [7]): 6.84 µM
